In series [1] the test system is Plasmodium falciparum. In words: Antimalarial activity against Plasmodium falciparum K1. Type of series: functional, organism-based.
Series [2] in a line: Dissociation constant, pKa of compound. Type of series: physicochemical.
For series [3], the system named is Plasmodium falciparum. Nature of the series: Antimalarial activity against Plasmodium falciparum NF54. Type of series: functional, organism-based.
In series [4] the test system is Plasmodium yoelii nigeriensis. Nature of the series: In vivo antimalarial activity against Plasmodium yoelii nigeriensis infected in Swiss mouse. It counts as functional.
In series [5] the test system is Plasmodium falciparum. In words: Antimalarial activity against Plasmodium falciparum 3D7. It counts as functional, organism-based.
The nature of series [6]: Inhibition of Plasmodium flaciparum 3D7_2 membrane recombinant ATP4 expressed in Escherichia coli BL21 (DE3) cells. Details: species or system Plasmodium falciparum.
The nature of series [7]: Inhibition of Plasmodium flaciparum B7 membrane recombinant ATP4 expressed in Escherichia coli BL21 (DE3) cells. Details: species or system Plasmodium falciparum.
Series [8] is described as follows: Selectivity ratio of IC50 for Plasmodium falciparum B7 membrane recombinant Na+ dependent ATPase activity to IC50 for Plasmodium falciparum 3D7_2 membrane recombinant Na+ dependent ATPase activity.
Series [9] in a line: Cytotoxicity against African green monkey Vero cells. Type of series: toxicity, cell-based, Chlorocebus sabaeus.
Series [10] relates to Plasmodium falciparum. Nature of the series: Antimalarial activity against chloroquine-sensitive Plasmodium falciparum W2 assessed as parasitic LDH activity incubated for 72 hrs by malstat reagent method. Type of series: functional, organism-based. Particulars: W2, 72 h.
In series [11] the test system is Plasmodium falciparum. In words: Antimalarial activity against chloroquine-sensitive Plasmodium falciparum D6 assessed as parasitic LDH activity incubated for 72 hrs by malstat reagent method. Type of series: functional, organism-based. Particulars: D6, 72 h.
Series [12] in a line: Inhibition of Plasmodium falciparum DHODH expressed in Escherichia coli BL21 (DE3) cells by DCIP staining method.
For series [13], the system named is Plasmodium falciparum. In words: In vivo antimalarial activity against Plasmodium falciparum infected in NMRI mouse. Type of series: functional.
The test system of another series is HepG2. Nature of the series: Cytotoxicity against human HepG2 cells. Type of series: functional, cell-based.
For series [14], the system named is Plasmodium falciparum. Nature of the series: Antimalarial activity against Plasmodium falciparum Dd2. It counts as functional, organism-based.
Series [15] has as its target Voltage-gated inwardly rectifying potassium channel KCNH2 (Homo sapiens, UniProt Q12809). Nature of the series: Inhibition of human ERG. It counts as toxicity.
Series [16] concerns Plasmodium falciparum. In words: Antimalarial activity against chloroquine-sensitive Plasmodium falciparum 3D7 by Giemsa staining method. Type of series: functional, organism-based.
The subject of series [17] is Plasmodium falciparum. Nature of the series: Antimalarial activity against chloroquine resistant Plasmodium falciparum Dd2 incubated for 48 hrs by SYBR green I fluorescence based assay. Type of series: functional, organism-based. Particulars: Dd2, 48 h.
The test system of series [18] is Plasmodium falciparum. Nature of the series: Antimalarial activity against chloroquine sensitive Plasmodium falciparum NF54 incubated for 48 hrs by SYBR green I fluorescence based assay. It counts as functional, organism-based. Particulars: NF54, 48 h.
Series [19] relates to Plasmodium falciparum. In words: Antimalarial activity against chloroquine resistant Plasmodium falciparum K1 incubated for 48 hrs by SYBR green I fluorescence based assay. It counts as functional, organism-based. Particulars: K1, 48 h.
Series [20] deals with Plasmodium falciparum. Nature of the series: Antimalarial activity against chloroquine resistant Plasmodium falciparum W2 incubated for 48 hrs by SYBR green I fluorescence based assay. Particulars: W2, 48 h. It counts as functional, organism-based.
The nature of series [21]: Inhibition of Plasmodium falciparum recombinant DHODH incubated for 5 mins by microplate reader method.
Series [22] in a line: Binding affinity to Plasmodium falciparum quadruple mutant DHFR assessed as inhibition constant.
For series [23], the system named is Plasmodium falciparum. In words: In vivo antimalarial activity against Plasmodium falciparum infected in SCID mouse. It counts as functional.
Series [24] in a line: Inhibition of Plasmodium vivax PI4K.
In series [25] the test system is Plasmodium falciparum. Nature of the series: Antimalarial activity against Plasmodium falciparum assessed as increase in parasite swelling diameter at ring stage after 2 hrs by time-lapse live cell imaging (reference value: […]). It counts as functional.
Series [26] is described as follows: Drug elimination in human urine assessed as unchanged fraction. It counts as ADME. Particulars: read-out: Drug excretion.
The test system of series [27] is Plasmodium falciparum. In words: Antimalarial activity against chloroquine resistant Plasmodium falciparum K1 incubated for 72 hrs by malaria SYBR green I nucleic acid staining dye based fluorescence assay. It counts as functional, organism-based. Particulars: K1, 72 h.
Series [28] has as its system Plasmodium falciparum. In words: Antimalarial activity against chloroquine sensitive Plasmodium falciparum 3D7 incubated for 72 hrs by malaria SYBR green I nucleic acid staining dye based fluorescence assay. It counts as functional, organism-based. Particulars: 3D7, 72 h.
The next series deals with Plasmodium yoelii. In words: In vivo antimalarial activity against Plasmodium yoelii infected in mouse. Type of series: functional.
The subject of a further series is L6. In words: Cytotoxicity against rat L6 cells. Type of series: functional, cell-based.

Converted amounts (≈) assume the structure as drawn.

Chain of Voltage-gated inwardly rectifying potassium channel KCNH2 (Q12809 whole entry): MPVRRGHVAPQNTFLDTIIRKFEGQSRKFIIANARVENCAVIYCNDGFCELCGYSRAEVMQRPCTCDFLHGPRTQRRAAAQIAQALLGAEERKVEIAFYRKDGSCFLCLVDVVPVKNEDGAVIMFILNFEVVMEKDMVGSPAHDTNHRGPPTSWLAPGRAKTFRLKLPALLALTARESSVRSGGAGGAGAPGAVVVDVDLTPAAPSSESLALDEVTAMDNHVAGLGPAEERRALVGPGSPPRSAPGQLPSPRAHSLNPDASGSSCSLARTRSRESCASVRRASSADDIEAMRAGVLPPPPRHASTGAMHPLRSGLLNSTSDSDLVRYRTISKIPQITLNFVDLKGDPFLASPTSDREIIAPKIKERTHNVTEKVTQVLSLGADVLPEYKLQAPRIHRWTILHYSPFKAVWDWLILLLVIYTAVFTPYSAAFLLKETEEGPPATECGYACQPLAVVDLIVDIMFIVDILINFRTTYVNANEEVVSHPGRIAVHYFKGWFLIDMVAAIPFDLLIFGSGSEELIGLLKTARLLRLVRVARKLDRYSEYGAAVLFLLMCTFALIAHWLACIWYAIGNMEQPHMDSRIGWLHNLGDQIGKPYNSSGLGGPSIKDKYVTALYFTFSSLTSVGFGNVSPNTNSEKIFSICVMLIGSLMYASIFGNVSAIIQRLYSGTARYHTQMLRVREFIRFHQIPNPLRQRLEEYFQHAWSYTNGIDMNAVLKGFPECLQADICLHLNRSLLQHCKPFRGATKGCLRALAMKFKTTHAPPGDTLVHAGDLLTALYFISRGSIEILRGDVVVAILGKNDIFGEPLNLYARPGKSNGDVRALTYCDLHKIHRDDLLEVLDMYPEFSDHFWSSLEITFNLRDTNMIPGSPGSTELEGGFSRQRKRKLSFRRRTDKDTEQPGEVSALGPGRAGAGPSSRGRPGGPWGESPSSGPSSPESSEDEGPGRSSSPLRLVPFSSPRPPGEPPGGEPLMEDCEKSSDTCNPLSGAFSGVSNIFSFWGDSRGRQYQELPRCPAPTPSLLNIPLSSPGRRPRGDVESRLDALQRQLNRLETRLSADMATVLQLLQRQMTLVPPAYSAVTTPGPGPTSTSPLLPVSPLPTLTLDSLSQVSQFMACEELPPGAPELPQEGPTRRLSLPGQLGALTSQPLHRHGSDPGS

For `CC(C)(C)c1cc(O)c(CN)c(C(C)(C)C)c1`, the results for the IC50 in the series on Plasmodium falciparum [1] and with Plasmodium falciparum [3] were 9.6 nM and 91.5 nM, respectively. Further, the pKa (usually the negative logarithm of the acid dissociation constant) in series [2] turned out to be 7.2.

As to `C=C(c1ccc(OC(C)(C)COC(=O)CCC(=O)O)cc1)C1COC2(OO1)C1CC3CC(C1)CC2C3` (centres undefined), in [4], the ED90 turned out to be 18.3 mg/kg. Besides, the pKa in [2] stood at 4. Besides, the IC50 (usually the concentration that gives 50% inhibition) in the series on Plasmodium falciparum [5] amounted to 49 nM.

For `CCC(CC)Nc1nc(C)c(C#N)c2ccccc12`, the IC50 in [6] came to 70 nM; in series [7], 429 nM. Besides, in [8], the Ratio IC50 was found to be 6.

As for `c1cc(N2CCOCC2)nc(NCCNc2nc(N3CCOCC3)nc(N3CCOCC3)n2)n1`, the IC50 was greater than 10100 nM in series [9], 1320 nM in the series with Plasmodium falciparum [10] and 1180 nM with Plasmodium falciparum [11].

Consider `COC(=O)[C@]1(C)C[C@H](c2ccccc2)N2[C@@H](C)CC(=O)N21`, for which the IC50 in series [12] is 2900 nM.

In the series with Plasmodium falciparum [13], `C[C@H]1Cc2c([nH]c3cc(Cl)c(F)cc23)[C@@]2(N1)C(=O)Nc1ccc(Cl)cc12` [CIPARGAMIN] had an ED90 of 2.7 mg/kg. Moreover, in series [2], the pKa amounted to 4.6.

In [2], `O=C(c1ccc(OC[C@H](O)Cn2ncnn2)cc1)N1CC[C@H](c2ccc(F)cc2)C1` had a pKa of 12.6.

Regarding `COc1ccc(NC(=O)N2CCCCN3[C@H](CN(C)C)[C@H](c4ccc(C#Cc5ccccc5)cc4)[C@@H]3C2)cc1`, in the series with HepG2, the CC50 (commonly the concentration that lowers cell viability or growth by half) amounted to 9000 nM. Also, the values for the EC50 with Plasmodium falciparum [14] and with Plasmodium falciparum [5] were 3 nM and 9 nM, respectively. Further, 2100 nM corresponded to half-maximal inhibition in series [15] (IC50). The molecule further showed a pKa in series [2] of 5.

As for `CNNc1nc(NNC)nc(Nc2nc(-c3ccc(Cl)cc3Cl)cs2)n1`, it took 10 µg/mL (≈ 24.3 µM) to reach half-maximal inhibition in the series on Plasmodium falciparum [16] (IC50).

For `C[C@H]1[C@H](Nc2ccc(F)cc2)O[C@@H]2O[C@]3(C)CC[C@H]4[C@H](C)CC[C@@H]1[C@@]24OO3`, the IC50 came to 11.1 nM with Plasmodium falciparum [17], 1.3 nM in the series with Plasmodium falciparum [18], 0.6 nM in the series with Plasmodium falciparum [19] and 3 nM with Plasmodium falciparum [20].

As to `c1c2c(cc3c1OCO3)-c1cc3ccc4c(c3c[n+]1CC2)OCO4` [COPTISINE], the half-maximal inhibitory concentration (IC50) in series [21] turned out to be 1830 nM.

Turning to `CCc1nc(N)nc(N)c1OCCCOc1ccccc1CCC(=O)O`, the inhibitory constant (Ki) (as a rule, the equilibrium dissociation constant of an inhibitor or competing ligand from its target) in series [22] worked out at 0.54 nM. In series [2], this molecule had a pKa of 4.5.

With `CS(=O)(=O)c1ccc(-c2cnc(N)c(-c3ccc(C(F)(F)F)nc3)c2)cc1` [MMV-048], in the series on Plasmodium falciparum [23], the ED90 was found to be 0.57 mg/kg. The same molecule returned a half-inhibitory concentration (IC50) in series [24] of 3.4 nM.

Take `CC(C)c1nc2ccccc2n1CC(=O)Nc1c(-c2ccc(Cl)cc2F)c(C(F)(F)F)nn1C`: the Activity in the series on Plasmodium falciparum [25] worked out at 4.6 µm.

Take `COc1cc(NCCCCCNC(C)C)c2ncccc2c1` [PENTAQUINE]: the dose excreted in series [26] is less than 1%.

As to `CC1CCCN(C[C@H](C)Nc2ccnc3cc(Cl)ccc23)C1` (some centres undefined), the IC50 with Plasmodium falciparum [27] came to 21 nM; in the series with Plasmodium falciparum [28] it was 14 nM.

`COc1cc(NCCCC(C)N)c2ncccc2c1` (centres undefined) [QUINOCIDE]: the dose excreted in series [26] was less than 1%.

The molecule `COc1cc2[nH]c(C)c(-c3ccc(Oc4ccc(OC(F)(F)F)cc4)cc3)c(=O)c2cc1Cl` yielded an IC50 in the series with HepG2 greater than 10000 nM. It took 2.5 nM to reach a half-maximal effect in the series with Plasmodium falciparum [14] (EC50). In the series on Plasmodium yoelii, this molecule yielded an ED90 of 0.02 mg/kg.

In turn, `CC(=O)N1CCN(c2ccc(CN(C(=O)/C=C/c3ccc(C(F)(F)F)cc3)[C@@H](Cc3ccccc3)C(=O)N3CCN(Cc4ccc(N(C)CCO)cc4)CC3)cc2)CC1` showed an ED90 in the series with Plasmodium falciparum [23] of 8.4 mg/kg. The IC50 in the series with Plasmodium falciparum [1] was 0.46 nM; with L6, 8850 nM; in the series on Plasmodium falciparum [3], 10 nM. Besides, the pKa in [2] amounted to 7.5.

The record behind these values is ChEMBL document CHEMBL5104092, “An insight into the recent development of the clinical candidates for the treatment of malaria and their target proteins” (Eur J Med Chem, 2021).
